According to ChEMBL document CHEMBL1201862, “PubChem BioAssay data set” (2004):
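48-hour exposure; five concentrations; linearly interpolated endpoints. GI50 = concentration required for 50% inhibition of growth.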 The source made the active and inactive calls. Rule as the data show it: active = GI50 up to about 1.1 µM and inactive = higher.

How the values were obtained:
Assay in all cases: DTP human tumour cell line panel, 48 h
MOLT-4 = system: MOLT-4
TK-10 = system: TK-10
RPMI-8226 = system: RPMI-8226
NCI/ADR-RES = system: NCI/ADR-RES
M14 = system: M14
U-251 = system: U-251
T47D = system: T47D
OVCAR-3 = system: OVCAR-3
CCRF-CEM = system: CCRF-CEM
OVCAR-5 = system: OVCAR-5
LOX IMVI = system: LOX IMVI
SNB-75 = system: SNB-75
SF-268 = system: SF-268
OVCAR-4 = system: OVCAR-4
786-0 = system: 786-0
NCI-H460 = system: NCI-H460
Hs-578T = system: Hs-578T
EKVX = system: EKVX
SK-OV-3 = system: SK-OV-3
HOP-92 = system: HOP-92

Measured: GI50

O=C(OC(=C(c1ccccc1)c1ccccc1)N1CCCC1=S)C(c1ccccc1)c1ccccc1
inactive: MOLT-4 5.01 µM | TK-10 > 10 µM | RPMI-8226 7.55 µM | NCI/ADR-RES 5.87 µM | M14 > 10 µM | U-251 6.32 µM | T47D 3.58 µM | OVCAR-3 7.6 µM | CCRF-CEM 3.94 µM | OVCAR-5 > 10 µM | LOX IMVI 3.17 µM | SNB-75 4.91 µM | SF-268 > 10 µM | OVCAR-4 8.83 µM | 786-0 > 10 µM | NCI-H460 3.58 µM | Hs-578T > 10 µM | EKVX > 10 µM | SK-OV-3 9.18 µM

C=C1CC(C#N)(C#N)[C@@H]2CC3CCCC3[C@H]12.C=C1CC(C#N)(C#N)[C@H]2C3CCCC3C[C@@H]12 (some centres not stated)
inactive: MOLT-4 13.1 µM | TK-10 35.1 µM | NCI/ADR-RES 23.9 µM | M14 15.6 µM | U-251 20 µM | T47D 31.9 µM | OVCAR-3 19.3 µM | CCRF-CEM 10 µM | OVCAR-5 10 µM | SF-268 23.3 µM | HOP-92 11.3 µM | 786-0 10.5 µM | NCI-H460 10 µM | Hs-578T 35.9 µM | EKVX 24.2 µM | SK-OV-3 25.4 µM

CC1=C2c3c(C)ccc4ccc(C)c(c34)C2(O)C(C)C1=O (configuration not stated)
inactive: MOLT-4 25 µM | TK-10 > 100 µM | RPMI-8226 33 µM | NCI/ADR-RES 15.2 µM | M14 62.2 µM | U-251 > 100 µM | T47D 29.3 µM | OVCAR-3 37.7 µM | OVCAR-5 > 100 µM | LOX IMVI 45.4 µM | SNB-75 30.8 µM | SF-268 63.4 µM | HOP-92 44.5 µM | OVCAR-4 65 µM | 786-0 51.2 µM | NCI-H460 60.1 µM | Hs-578T 35.1 µM | EKVX 70.8 µM | SK-OV-3 52.7 µM

O=C(O)c1cccc(CN2CCCCC2)c1
inactive: MOLT-4 > 100 µM | TK-10 > 100 µM | RPMI-8226 > 100 µM | NCI/ADR-RES > 100 µM | M14 > 100 µM | U-251 > 100 µM | T47D > 100 µM | OVCAR-3 > 100 µM | CCRF-CEM > 100 µM | OVCAR-5 > 100 µM | LOX IMVI > 100 µM | SF-268 > 100 µM | OVCAR-4 > 100 µM | 786-0 > 100 µM | NCI-H460 > 100 µM | Hs-578T > 100 µM | EKVX > 100 µM | SK-OV-3 > 100 µM

CC(C)N1CCN(c2ccncc2S(=O)(=O)N2CCCCC2)CC1
inactive: TK-10 > 100 µM | RPMI-8226 > 100 µM | NCI/ADR-RES > 100 µM | M14 > 100 µM | U-251 > 100 µM | T47D > 100 µM | OVCAR-3 > 100 µM | OVCAR-5 > 100 µM | LOX IMVI > 100 µM | SNB-75 > 100 µM | SF-268 > 100 µM | HOP-92 > 100 µM | OVCAR-4 > 100 µM | 786-0 > 100 µM | NCI-H460 > 100 µM | Hs-578T > 100 µM | EKVX > 100 µM | SK-OV-3 > 100 µM

O=C1C=CC(=O)c2c(O)nc(CBr)nc21
inactive: MOLT-4 > 100 µM | RPMI-8226 97.9 µM | NCI/ADR-RES > 100 µM | M14 61.5 µM | U-251 95.9 µM | T47D > 100 µM | OVCAR-3 > 100 µM | OVCAR-5 > 100 µM | LOX IMVI > 100 µM | SNB-75 > 100 µM | SF-268 > 100 µM | OVCAR-4 > 100 µM | 786-0 > 100 µM | Hs-578T > 100 µM | EKVX > 100 µM | SK-OV-3 > 100 µM

COC1=C(Br)[C@H](O)[C@@]2(C=C1Br)CC(C(=O)NCCCOc1c(Br)cc(C(O)CNC(C)=O)cc1Br)=NO2 (some centres not stated) [APLYSINAMISINE III]
inactive: MOLT-4 7.73 µM | TK-10 > 10 µM | RPMI-8226 > 10 µM | NCI/ADR-RES > 10 µM | M14 8.73 µM | U-251 > 10 µM | T47D > 10 µM | OVCAR-3 > 10 µM | CCRF-CEM > 10 µM | OVCAR-5 > 10 µM | LOX IMVI > 10 µM | SNB-75 2.79 µM | SF-268 > 10 µM | OVCAR-4 > 10 µM | 786-0 > 10 µM | NCI-H460 > 10 µM | Hs-578T > 10 µM | SK-OV-3 > 10 µM

COc1cc(N(CCC#N)CCC#N)ccc1C(/N=N/c1ccccc1C)=N\NC(=O)c1ccc(C)cc1
inactive: MOLT-4 28 µM | TK-10 > 100 µM | NCI/ADR-RES > 100 µM | M14 > 100 µM | U-251 42.3 µM | T47D 38.2 µM | OVCAR-3 24.2 µM | CCRF-CEM 15.2 µM | OVCAR-5 > 100 µM | LOX IMVI 40.8 µM | SF-268 64.4 µM | HOP-92 53.8 µM | OVCAR-4 59.8 µM | 786-0 36.6 µM | NCI-H460 73.5 µM | Hs-578T > 100 µM | EKVX 28.4 µM | SK-OV-3 > 100 µM

Nc1nc2cc(Cl)ccc2n1N
inactive: MOLT-4 > 100 µM | TK-10 > 100 µM | RPMI-8226 > 100 µM | M14 > 100 µM | U-251 > 100 µM | T47D > 100 µM | CCRF-CEM > 100 µM | OVCAR-5 > 100 µM | LOX IMVI > 100 µM | SNB-75 > 100 µM | SF-268 > 100 µM | 786-0 > 100 µM | Hs-578T > 100 µM | EKVX > 100 µM | SK-OV-3 33.8 µM

Cc1ccc(S(=O)(=O)NN=C2CCCCCCCCCCC2)cc1
inactive: MOLT-4 > 100 µM | TK-10 > 100 µM | RPMI-8226 > 100 µM | NCI/ADR-RES > 100 µM | M14 > 100 µM | U-251 > 100 µM | T47D > 100 µM | OVCAR-3 > 100 µM | CCRF-CEM > 100 µM | OVCAR-5 > 100 µM | LOX IMVI > 100 µM | SF-268 > 100 µM | HOP-92 > 100 µM | OVCAR-4 > 100 µM | 786-0 > 100 µM | NCI-H460 > 100 µM | Hs-578T 35.7 µM | EKVX > 100 µM | SK-OV-3 > 100 µM

Cc1n[nH]c(C(F)(F)F)c1/N=N/N(C)C
inactive: MOLT-4 2.48 µM | TK-10 7.91 µM | RPMI-8226 2.14 µM | NCI/ADR-RES 7.13 µM | M14 14.7 µM | U-251 11 µM | T47D 2.23 µM | OVCAR-3 5.16 µM | CCRF-CEM 2.63 µM | LOX IMVI 1.47 µM | SF-268 11.4 µM | HOP-92 8.32 µM | 786-0 1.24 µM | NCI-H460 10.5 µM | Hs-578T 15.6 µM | EKVX 2.25 µM | SK-OV-3 12.5 µM

Nc1ccc(C(=O)Nn2c(-c3ccccc3)nc3ccccc3c2=O)cc1
inactive: MOLT-4 > 100 µM | TK-10 > 100 µM | RPMI-8226 > 100 µM | M14 > 100 µM | U-251 > 100 µM | T47D > 100 µM | OVCAR-3 > 100 µM | CCRF-CEM > 100 µM | OVCAR-5 > 100 µM | LOX IMVI > 100 µM | SNB-75 89.7 µM | SF-268 > 100 µM | HOP-92 > 100 µM | OVCAR-4 > 100 µM | 786-0 > 100 µM | NCI-H460 > 100 µM | Hs-578T 14.1 µM | EKVX > 100 µM | SK-OV-3 > 100 µM

CN(Cc1ccccc1)c1cc(=O)n(C)c(=O)[nH]1
inactive: MOLT-4 > 100 µM | TK-10 > 100 µM | RPMI-8226 > 100 µM | NCI/ADR-RES > 100 µM | M14 > 100 µM | U-251 > 100 µM | T47D > 100 µM | OVCAR-3 > 100 µM | CCRF-CEM 62.2 µM | OVCAR-5 > 100 µM | LOX IMVI > 100 µM | SF-268 > 100 µM | HOP-92 > 100 µM | OVCAR-4 > 100 µM | 786-0 > 100 µM | NCI-H460 > 100 µM | Hs-578T > 100 µM | SK-OV-3 > 100 µM

O=C1CCCc2ccc3c(c21)CC1(Cc2ccccc2C1)C3
inactive: TK-10 69.5 µM | RPMI-8226 16.9 µM | NCI/ADR-RES 50.6 µM | M14 34.6 µM | U-251 41.8 µM | T47D 44.2 µM | OVCAR-3 33.5 µM | OVCAR-5 31 µM | LOX IMVI 30.6 µM | SNB-75 1.26 µM | HOP-92 17 µM | OVCAR-4 17.2 µM | 786-0 29.1 µM | Hs-578T 25.9 µM | EKVX 7.78 µM | SK-OV-3 53.5 µM

CC1C(c2ccc(Cl)cc2)c2cc3c(cc2OC1N1CCOCC1)OCO3 (configuration not stated)
inactive: MOLT-4 > 100 µM | TK-10 > 100 µM | RPMI-8226 34.1 µM | NCI/ADR-RES > 100 µM | M14 85.3 µM | T47D 32.4 µM | OVCAR-3 85.3 µM | CCRF-CEM 92.9 µM | OVCAR-5 > 100 µM | LOX IMVI > 100 µM | SNB-75 44.1 µM | SF-268 > 100 µM | 786-0 56.8 µM | NCI-H460 > 100 µM | Hs-578T 23.9 µM | EKVX > 100 µM
